Tests used:
[1] = system: SKOV-3 cells; format: cell-based, human; conditions: SKOV-3, 24 hours incubation; read-out: IC50 (maximal efficacy)
From the text: (§1) Membranes of non-cancerous cell lines are neutral and are resistant to cytolytic peptides, in contrast to cancer cell lines, which have a high phosphatidic acid content in their outer membrane.
(§2) The breast cancer cell lines studied were MDA-MB-4355 (estrogen receptor alpha negative), MCF-7 and T47D (estrogen receptor alpha positive), ovarian cancer cell lines (OVCAR-3 and SKOV-3), prostate cancer (LNCaP), the non-malignant breast epithelial cell line MCF-10A and the mouse fibroblast cell line NIH:3T3.
(§3) Cells were seeded into 96 well plates at a densitiy of 10,000 cells/well. […] Controls contained USP saline or 0.1% TritonX-100™ as reference for 0 and 100% cell death, respectively. […] Cell viability was assessed through formazan conversion assay (MTT assay, (CellTiter 96 Aqueous One, Promega # G3582). Formazan conversion was determined using a BioRad Benchmark Plus microplate spectrophotometer dual wavelengths at 490/630 nm at room temperature).
(§4) Data were calculated as fraction of absorption in TritonX-100™ containing wells representing 100% cell death versus 0% cell death in saline containing wells. Cytotoxicity was determined as IC50 using GraphPad Prism version 5.01 for Windows, GraphPad Software, San Diego Calif. […] 4 wells of each individual set of two 96 well plates were compared and analyzed. Statistical analysis for significance was determined by a two-tailed Student's T-test.

[2] = system: OVCAR-3 cells; format: cell-based, human; conditions: OVCAR-3 (p47), values listed with increasing incubation time, times not stated
From the text: as §1, §2, §3, §4

Sequence: KFAKFAKKFAKFAKKFAKQHWSYGLRPG [Phor18-LHRH]
- IC50 [1]: 11.5 µM
- IC50 [2]: 0.5 µM

Reference: patent US20140161767A1, “FOLLICLE-STIMULATING HORMONE (FSH)/LYTIC DOMAIN FUSION CONSTRUCTS AND METHODS OF MAKING AND USING SAME” (BOARD OF SUPERVISORS OF LOUISIANA STATE UNIVERSITY AND …, priority 2012, published 2014)
